SMILES strings stand for the structures. Like-named read-outs stand apart in the source and are kept apart here.

These results are taken from patent EP3856897B1 (Anadolu Universitesi, priority 2018, dated 2020).

Experiment [1] deals with T1, recombinant Tetrahymena thermophila Glutathione S Transferase Mu34 (TtGSTm34-8xHis) enzyme, SEQ ID NO: 1 (Tetrahymena thermophila, UniProt I7M2D2).
T1 sequence (I7M2D2 39-257): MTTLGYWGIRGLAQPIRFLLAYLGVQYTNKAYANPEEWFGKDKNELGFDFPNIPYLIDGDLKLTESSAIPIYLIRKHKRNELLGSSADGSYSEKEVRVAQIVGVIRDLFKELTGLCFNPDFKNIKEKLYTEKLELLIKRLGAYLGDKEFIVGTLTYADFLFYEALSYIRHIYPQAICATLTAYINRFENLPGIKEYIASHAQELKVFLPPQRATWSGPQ
Briefly: Enzyme kinetics of recombinant TtGSTm34-8xHis for substrates GSH and CDNB (spectrophotometric at 340 nm, Lineweaver-Burk). The format is biochemical. The following applies: 200 mM potassium phosphate buffer, 25°C; for Km: 7 substrate concentrations 0.1125-3.6 mM, the other substrate (GSH or CDNB) held at 0.9 mM, Lineweaver-Burk graph; for Kcat: kcat = Vmax/Et, the other substrate held at 0.9 mM. The method, then:
Determination of GST enzyme activities of affinity purified proteins was performed spectrophotometrically in the presence of 1-chloro-2,4-dinitrobenzene (CDNB) as substrate. […] The enzyme activities were measured with BioTek The Synergy ™ HT Elisa device using Gen5 software. The O.D values for enzyme activity were determined at 340 nm for 30 minutes with 2 minutes intervals, using BioTek The Synergy™ HT Elisa Reader kinetics program.
Unit value of activity is defined as the amount of enzyme that catalyzes 1 µmol substrate at 25°C (CDNB extinction coefficient340 nm = 9.6 mM^-1 cm^-1). The enzyme activities were first calculated in terms of U/ml. Then these values were divided by protein concentrations that were determined by Bradford method (Pierce™ Coomassie Plus Bradford Assay Reagent Cat no: 23238). This way specific activities were calculated in terms of U/mg.
Then activity measurements were carried out in 200 mM potassium phosphate buffer at 25°C for 7 different CDNB concentrations: 0,1125 mM, 0,225 mM, 0,45 mM, 0,9 mM, 1,8 mM, 2,7 mM ve 3,6 mM. A 1/V^- 1 [CDNB] Lineweaver-Burk graph was drawn according to the results obtained (Figure 8). With this graphical aid, Km and Vmax values for CDNB were determined.
These calculations were followed by quantitative protein assay (Bradford) and total enzyme amount (Et) was determined. Kcat value, which reflects the enzyme turnover number was calculated using the formula given below: kcat = Vmax /Et [formula]
One way of comparing the catalytic effects of various enzymes or the conversion of different substrates to the product with the same enzyme is to find the specificity constant (V0) for the reactions. The specificity constant is calculated by the following formula: V0 = kcat /km [formula]

For experiment [2], the target named is T2, mu class glutathione S-transferase from Manila clam Ruditapes philippinarum (RpGSTµ) (Ruditapes philippinarum, UniProt G9HSP7).
T2 sequence (G9HSP7 1-217): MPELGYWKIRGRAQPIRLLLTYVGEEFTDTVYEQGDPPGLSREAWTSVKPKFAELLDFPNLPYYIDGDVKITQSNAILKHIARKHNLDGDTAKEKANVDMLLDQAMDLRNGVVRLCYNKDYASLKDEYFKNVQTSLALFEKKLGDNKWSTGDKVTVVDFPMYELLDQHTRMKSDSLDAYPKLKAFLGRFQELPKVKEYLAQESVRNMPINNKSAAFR
As to conditions: from Bathige et al., 2014, cited from earlier work.

As for `O=[N+]([O-])c1ccc(Cl)c([N+](=O)[O-])c1` [CDNB, 1-Chloro-2,4-dinitrobenzene], the Km was 470 µM in experiment [1] and 560 µM in experiment [2]. In addition, in experiment [1], the Kcat turned out to be 195.4 s⁻¹.
With `N[C@@H](CCC(=O)N[C@@H](CS)C(=O)NCC(=O)O)C(=O)O` [GSH, glutathione], the Km in experiment [1] (read-out: Km) is 540 µM; in experiment [2] (read-out: Km) it was 1030 µM. Also, in experiment [1], the Kcat amounted to 186.9 s⁻¹.

The term Km denotes the substrate concentration at which the rate is half of its maximum.
